{"source": "patent US20240091254A1", "about": "“WNT AGONISTS FOR PREVENTION OF CANCER” (ACADEMISH MEDISCH CENTRUM, priority 2021, published 2024)", "key": {"[1]": {"test_system": "human colon organoids", "assay": "Human colon organoids incubated with FAP CM", "format": "cell-based", "conditions": "FAP CM with or without LiCl"}, "[2]": {"test_system": "intestinal stem cells (ISCs) / intestinal epithelial cells", "assay": "Oral LiCl in WT Lgr5-CreErt2;Rosa26mTmG mice: Wnt activation and neutral ISC dynamics", "format": "in vivo, mouse", "experimental": "Lgr5-EGFP-IRES-Cre^ERT2 Villin-Cre^ERT2, Rosa26mTmG, Apc^fl/fl and Kras^G12D mice have been described earlier^30-34. All in vivo experiments were approved by the animal experimentation committee at the Amsterdam UMC—location Academic Medical Center in Amsterdam under nationally registered licence number AVD1180020172125 and performed according to national guidelines. Mice were housed in a 12 hour light/12 hour dark cycle, with temperatures between 20-24° C. and 40-70% humidity. For short term assays, both male and female mice were used. For long term assays, only females were used to prevent the risk of preliminary dropout due to fighting male mice. […] For all mouse experiments, sufficient sample sizes were determined based on previous studies with a similar study design^3,35. Experimental animals were randomly assigned to the control or lithium treated groups, clone sizes and adenoma counts were scored blindly. […] Mouse discomfort during tumour formation assays was closely monitored, and endpoints were determined as <15% weight loss within 2 days or a mouse grimace scale (MGS) score<3. […] After 60 days, intestines were removed and polyps were counted macroscopically.\nAfter the mice were sacrificed, intestines were removed fully and washed thoroughly with ice-cold PBS. […] For all crypt analyses, clone sizes were quantified as proportions of the crypt circumference (in eights, 1:8-8:8). […]"}, "[3]": {"test_system": "Wnt pathway (TOP-GFP reporter)", "assay": "TOP-GFP Wnt reporter assay in MEFs", "format": "cell-based, mouse", "experimental": "Mouse embryonic fibroblasts (MEFs, ATCC) and HEK293T (ATCC) cells were both cultured in Dulbecco's Modified Eagle's Medium (DMEM) supplemented with 10% fetal calf serum (FCS), 1% Glutamine, and antibiotic penicillin and streptomycin. Cells were maintained at 37° C. in humidified air containing 5% CO2. All cell lines were routinely checked for mycoplasm contamination, no cell line authentication was performed.\nMouse embryonic fibroblasts (MEFs) were cultured in Dulbecco's Modified Eagle's Medium (DMEM) supplemented with 10% fetal calf serum (FCS), 1% Glutamine, and antibiotic penicillin and streptomycin. MEFs were stably transduced with Wnt reporter TOP-GFP (Addgene plasmid #35491). For TOP-GFP assays, cells were stimulated with Wnt3A conditioned medium for 24 hours after which GFP positivity was measured by flow cytometry."}}}
{"smiles": "[Cl-].[Li+]", "note": "[LiCl, lithium chloride]", "values": [{"measurement": "Stemness (LGR5 expression) and clonogenicity of human colon organoids incubated with FAP CM", "setting": "[1]", "value": "rescued loss of sternness and clonogenicity"}, {"measurement": "Influence on fundamental ISC dynamics (neutral ISC competition)", "setting": "[2]; WT mice, oral LiCl", "value": "no influence on fundamental ISC dynamics"}, {"measurement": "Wnt activation in intestinal epithelial cells (Lgr5 expression, Lgr5-GFP cells)", "setting": "[2]; oral LiCl 300 mg/liter in tap water", "value": "effective Wnt activation"}, {"measurement": "Effect on Apc-/- CM reduction of Wnt3a mediated Wnt activation (TOP-GFP)", "setting": "[3]; MEFs, TOP-GFP reporter, 5 mM LiCl", "value": "completely abrogated this effect"}, {"measurement": "Wnt signalling activation in Wnt reporter assay, Li2CO3 compared with LiCl", "setting": "[3]; comparable concentrations (5 or 10 mM)", "value": "activated the same amount of Wnt signalling"}]}
